In BindingDB's records for doi:10.1021/ml400486k (University of California, 2014):
pIC50: −log10 of the molar value.

Experiment: Inhibition of Bacillus anthracis lethal toxin-induced mouse RAW264.7 cell death preincubated for 1 hr followed by lethal toxin challenge measured after 4 hrs

First: COc1ccc(/C=N/NC(=O)Nc2c(C)cccc2C)cc1
Second: Cc1ccc(/C=N/NC(=O)Nc2c(C)cccc2C)cc1
The pIC50 of the first is lower: less than 4.90 for the first, 5.54 for the second. The second is the more potent here.

`Cc1ccc(/C=N/NC(=O)Nc2c(C)cccc2C)cc1F` and `Cc1cccc(C)c1NC(=O)N/N=C/c1ccc(Br)c(F)c1` are within 0.2 log units of each other in pIC50: 5.74 for the first, 5.82 for the second.

Going from `Cc1cccc(C)c1NC(=O)N/N=C/c1ccc(Br)cc1F` to `Cc1cccc(C)c1NC(=O)N/N=C/c1ccc(F)cc1F`, the pIC50 falls from 6.40 to 5.68 (0.72 log units).

`Cc1cccc(C)c1NC(=O)N/N=C/c1ccc(Br)cc1` and `Cc1cccc(C)c1NC(=O)N/N=C/c1ccc(I)cc1` are within 0.2 log units of each other in pIC50: 5.85 for the first, 5.74 for the second.

`Cc1cccc(C)c1NC(=O)N/N=C/c1ccc(N=[N+]=[N-])cc1F` and `Cc1cccc(C)c1NC(=O)N/N=C/c1ccc(N=[N+]=[N-])cc1` are within 0.2 log units of each other in pIC50: 5.66 for the first, 5.55 for the second.

`Cc1cccc(C)c1NC(=O)N/N=C/c1ccccc1F` and `Cc1cccc(C)c1NC(=O)N/N=C/c1ccc(F)cc1` are within 0.2 log units of each other in pIC50: 5.09 for the first, 5.15 for the second.

First: CCc1ccc(/C=N/NC(=O)Nc2c(C)cccc2C)cc1
Second: Cc1cccc(C)c1NC(=O)N/N=C/c1ccc(Cl)cc1
The pIC50 of the first is 0.25 log units lower: 5.52 for the first, 5.77 for the second. The second is the more potent here.

`C/C(=N\NC(=O)Nc1c(C)cccc1C)c1ccc(Br)cc1` and `Cc1cccc(C)c1NC(=O)N(C)/N=C/c1ccc(Br)cc1` are within 0.2 log units of each other in pIC50: 5.60 for the first, 5.70 for the second.

`C#Cc1ccc(/C=N/NC(=O)Nc2c(C)cccc2C)cc1` and `Cc1cccc(C)c1NC(=O)N/N=C/c1ccc(C#N)cc1` are within 0.2 log units of each other in pIC50: 5.77 for the first, 5.60 for the second.

Compared with `Cc1cccc(C)c1NC(=O)N/N=C/c1ccc(C(F)(F)F)cc1`, `Cc1cccc(C)c1NC(=O)N/N=C/c1ccc(C(C)C)cc1` is 0.40 log units lower in pIC50: 5.59 for the first, 5.19 for the second.

Going from `Cc1cc(C)c(NC(=O)N/N=C/c2ccc(Br)cc2)c(C)c1` to `Cc1cccc(C)c1NC(=O)N/N=C/c1ccc(Br)c(Cl)c1`, the pIC50 rises from 4.90 to 5.47 (0.57 log units). The second is the more potent here.

`Cc1cccc(C)c1NC(=O)N/N=C/c1c(F)cc(Br)cc1F` and `Cc1cccc(C)c1NC(=O)N/N=C/c1ccc(Br)cc1Cl` are within 0.2 log units of each other in pIC50: 5.40 for the first, 5.49 for the second.

Going from `Cc1cccc(C)c1NC(=S)N/N=C/c1ccc(Br)cc1` to `Cc1cccc(C)c1/N=C(\N)N/N=C/c1ccc(Br)cc1`, the pIC50 falls from 5.82 to 4.86 (0.96 log units). The first is the more potent here.

`C#CCN(/N=C/c1ccc(Br)cc1)C(=O)Nc1c(C)cccc1C` and `CCc1cccc(CC)c1NC(=O)N/N=C/c1ccc(Br)cc1` cannot be ordered by pIC50: less than 4.90 for the first, less than 4.90 for the second.

Going from `Cc1cccc(C)c1NC(=O)N/N=C/c1ccc(Br)o1` to `Cc1cccc(C)c1NC(=O)N/N=C/c1ccc(Br)s1`, the pIC50 rises from less than 4.60 to 5.77. The second is the more potent here.

`Cc1cccc(C)c1NC(=O)N/N=C/c1c(F)c(F)c(N=[N+]=[N-])c(F)c1F` and `Cc1cccc(C)c1NC(=O)N/N=C/c1cccs1` cannot be ordered by pIC50: less than 4.60 for the first, less than 4.60 for the second.

`Cc1cccc(/C=N/NC(=O)Nc2c(C)cccc2C)c1` gave a pIC50 of 4.87.
